Results taken from patent US6495370B1, “Inhibition of glutathione transferase by haloenol lactones” (The Regents of the University of California, priority 1995, dated 2002).
Like-named read-outs stand apart in the source and are kept apart here.

Columns and labels:
Type in all cases: biochemical
GST alpha = target: T1, GST alpha (Mus musculus, UniProt P30115); test: Time-dependent inhibition of purified GST alpha isoenzyme (GSH/CDNB activity assay); conditions: 100 μM compound, GST 1.0 μM, after 5 minutes at 37° C.
T1 construct: The three major mouse liver GST isoenzymes were purified according to established methods; from tissue; host or cells: liver of male CD-1 mice
T1 sequence (P30115 2-221 limits assumed): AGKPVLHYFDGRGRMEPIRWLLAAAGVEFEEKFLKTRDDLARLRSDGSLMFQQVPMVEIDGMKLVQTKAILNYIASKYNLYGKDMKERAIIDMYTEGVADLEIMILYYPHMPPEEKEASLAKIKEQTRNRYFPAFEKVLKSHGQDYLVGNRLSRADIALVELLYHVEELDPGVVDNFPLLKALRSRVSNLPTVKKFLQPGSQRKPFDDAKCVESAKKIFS
Description: (§1) The three major mouse liver GST isoenzymes were purified according to established methods. Male CD-1 mice, 25-35 g, were purchased from Charles River Breeding Laboratories, Inc. (Wilmington, Mass.). Animals were housed on autoclaved pine shavings in approved animal care facilities and fed ad libitum for 1 week prior to cervical dislocation.
(§2) Mice were killed by cervical dislocation and livers were removed, rinsed with ice-cold 10 mM Tris buffer (pH 7.4) containing 0.25 M sucrose, 1 mM EDTA and 1 mM DTT (buffer A). The tissues were homogenized in buffer A (1 g tissue/2 mL buffer). Centrifugation and all subsequent purification steps were carried out at 4° C. […] Column eluants were monitored at 280 nm using an Isco-UA5 detector. […] Pooled proteins were analyzed by ESI/MS to determine purity and subunit molecular weight. […]
(§3) For the enzyme inhibition studies, solutions of alpha, mu and pi glutathione S-transferase (1.0 μg/μl) were prepared in a 0.1 M potassium phosphate buffer (pH 6.5). […] Aliquots were withdrawn at 1, 3, 5, 8 and 12 min, and GST activity was measured using GSH and CDNB as substrates according to the method of Habig et al. (1974) J. Biol. Chem. 249:7130-7139.
(§4) In brief, the activity of the enzyme was determined in a 0.1 M potassium phosphate buffer (pH 6.5) containing 1 mM GSH and 1 mM CDNB using an extinction coefficient of 9.6 mM^−1 cm^−1. […]

GST pi isoenzyme [1] = target: T2, GST pi isoenzyme (Mus musculus, UniProt P19157); test: Kinetic constants for inhibition of GST pi isoenzyme
T2 construct: The three major mouse liver GST isoenzymes were purified according to established methods; from tissue; host or cells: liver of male CD-1 mice
T2 sequence (P19157 2-210 limits assumed): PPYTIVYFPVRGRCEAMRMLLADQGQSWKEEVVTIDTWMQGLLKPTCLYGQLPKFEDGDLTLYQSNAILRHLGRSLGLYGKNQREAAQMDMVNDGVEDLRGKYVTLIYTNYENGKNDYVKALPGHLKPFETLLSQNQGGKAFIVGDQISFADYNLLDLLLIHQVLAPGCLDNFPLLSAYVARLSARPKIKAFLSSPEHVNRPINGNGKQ
Description: Compounds 1 and 2 were synthesized and purified as described in Example 1, and GST pi isoenzyme was isolated from mouse liver as described in Example 2. Enzyme inhibition studies were performed as described in Example 3, except that four different concentrations of inhibitor were used. Enzyme assays were performed as described in Example 3.

GST mu = target: T3, GST mu (Mus musculus, UniProt P10649); test: Time-dependent inhibition of purified GST mu isoenzyme (GSH/CDNB activity assay); conditions: 100 μM compound, GST 1.0 μM, after 5 minutes at 37° C.
T3 construct: The three major mouse liver GST isoenzymes were purified according to established methods; from tissue; host or cells: liver of male CD-1 mice
T3 sequence (P10649 2-218 limits assumed): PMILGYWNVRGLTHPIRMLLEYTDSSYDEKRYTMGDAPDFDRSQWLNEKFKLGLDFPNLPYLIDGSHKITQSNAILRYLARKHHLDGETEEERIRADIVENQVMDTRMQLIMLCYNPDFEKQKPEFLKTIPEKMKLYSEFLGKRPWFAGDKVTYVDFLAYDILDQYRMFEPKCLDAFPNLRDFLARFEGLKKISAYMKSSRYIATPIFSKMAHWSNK
Description: as §1, §2, §3, §4

GST pi isoenzyme [2] = target: T2, GST pi isoenzyme; test: Time-dependent inhibition of purified GST pi isoenzyme (GSH/CDNB activity assay); conditions: for enzyme activity of GST pi: 100 μM compound, GST 1.0 μM, after 5 minutes at 37° C.; for nature of inhibitory effect on GST pi isozyme: summary statement
Description: as §1
Mice were killed by cervical dislocation and livers were removed, rinsed with ice-cold 10 mM Tris buffer (pH 7.4) containing 0.25 M sucrose, 1 mM EDTA and 1 mM DTT (buffer A). The tissues were homogenized in buffer A (1 g tissue/2 mL buffer). Centrifugation and all subsequent purification steps were carried out at 4° C. The homogenate was centrifuged at 10,000 g for 30 min. The supernatant fraction was then collected and centrifuged at 100,000 g for 80 min. Supernatant was next passed through a Sephadex G-25 Column (100 cm×2.5 cm) which had been pre-equilibrated in 25 mM potassium phosphate buffer (pH 7.4) containing 1 mM EDTA and 1 mM DTT (buffer B). Column eluants were monitored at 280 nm using an Isco-UA5 detector. The elutant from the G-25 column containing GST activity was applied to an affinity column (11 cm×2.5 cm, GSH-linked agarose, Sigma) at a flow rate of 0.64 ml/min. The first two GST isozymes were eluted using a linear gradient (0-75 mM) of GSH in buffer b (250 mL×250 mL). The third peak containing activity towards CDNB was eluted by using a linear gradient of increasing pH (7.4-9.0) in buffer b which was 75 mM in GSH (150 mL×150 mL). The three main peaks of activity were recovered and pooled separately. Each pool was concentrated to 25-30 mL in an Amicon ultrafiltration cell (Amicon, Inc., Beverly, Mass., USA) with a PM 10 membrane and dialyzed against 4L nanopure water. Pooled proteins were analyzed by ESI/MS to determine purity and subunit molecular weight. […]
as §3
In brief, the activity of the enzyme was determined in a 0.1 M potassium phosphate buffer (pH 6.5) containing 1 mM GSH and 1 mM CDNB using an extinction coefficient of 9.6 mM^−1 cm^−1. […] The rate of product formation was monitored by measuring the change in absorbance at 340 nm using a Shimadzu PC-2101 uv-visible spectrophotometer (Shimadzu Scientific Instruments, Columbia, Md., USA). Specific activities are based on protein concentrations as determined by the Bradford protein determination kit from Biorad, Hercules, Calif., USA, using bovine serum albumin as a reference.

GST pi isozyme [3] = target: T4, GST pi isozyme (Mus musculus, UniProt P19157); test: Time-dependent inhibition of GST pi with and without S-hexylglutathione; conditions: haloenol lactone 2 200 μM
T4 construct: The three major mouse liver GST isoenzymes were purified according to established methods; from tissue; host or cells: liver of male CD-1 mice
T4 sequence (P19157 2-210 limits assumed): as the sequence (P19157 2-210 limits assumed) above
Description: FIG. 7: Inactivation of glutathione S-transferase (GST) pi isozyme by haloenol lactone 2. The GST concentration was 1.0 μM): ●, control; ▴, +haloenol lactone 2 (200 μM), no S-hexylglutathione; ▪, +haloenol lactone 2 (200 μM), +S-hexylglutathione (2,000 μM).
Enzyme inhibition studies and enzyme assays for this experiment were performed as described in Example 3. S-hexylglutathione dissolved in a 0.1 M potassium phosphate buffer (pH 6.5) was added in the incubation solution. […] In this experiment, we incubated compound 2 with GST-pi isozyme in the presence of S-hexylglutathione (2,000 μM), a competitive inhibitor of GST. […] (See FIG. 7).

GST pi isozyme [4] = target: T4, GST pi isozyme; test: Irreversible inhibition of GST pi: activity after incubation and exhaustive dialysis; conditions: 10-fold excess of compound, 37° C., 3 hours, then dialysis against 6 changes of water
Description: The dialyzed protein sample was dried by lyophilization. The recovered protein was re-dissolved in water, and specific enzyme activity was determined by measuring the protein content and GST activity.

[5] = GST pi 1.0 μM, 37° C., four inhibitor concentrations

SMILES	enzyme activity of GST alpha remained (GST alpha)	kinact (GST pi isoenzyme [1]; [5]) [s⁻¹]	Ki (GST pi isoenzyme [1]; GST pi 1.0 μM, 37° C., four inhibitor concentrations, read-out: KI) [µM]	kinact/KI (GST pi isoenzyme [1]; GST pi, read-out: kinact/KI ratio (converted)) [M⁻¹ s⁻¹]	enzyme activity of GST mu remained (GST mu)	enzyme activity of GST pi (GST pi isoenzyme [2])	nature of inhibitory effect on GST pi isozyme (GST pi isoenzyme [2])	effect of S-hexylglutathione on time-dependent inhibition of GST by compound 2 (GST pi isozyme [3]; S-hexylglutathione 2,000 μM, GST pi 1.0 μM)	time in which the enzyme was totally inactivated (GST pi isozyme [3]; GST 1.0 μM, no S-hexylglutathione) [min]	Ki (GST pi isoenzyme [1]) [µM]	kinact/KI (GST pi isoenzyme [1]; read-out: kinact/KI ratio) [M⁻¹ s⁻¹]	enzyme activity of modified GST remained relative to the control (GST pi isozyme [4]) [%]	restoration of GST activity by exhaustive dialysis (GST pi isozyme [4])
O=C1O/C(=C/Br)CC1CC1OC1c1ccccc1 (stereo not drawn) [compound 1, 3-Cinnamyl-(α,β-epoxy)-5(E)-bromomethylidenetetrahydro-2-furanone]	about 80%	0.0198	64.4	308	about 80%	completely inhibited	time-dependent and irreversible						
CCCCCCSC[C@H](NC(=O)CC[C@H](N)C(=O)O)C(=O)NCC(=O)O [S-hexylglutathione, reference compound]								completely suppressed					
O=C1O/C(=C/Br)CC1CC=Cc1ccccc1 (stereo not shown) [compound 2, 3-Cinnamyl-5(E)-bromomethylidenetetrahydro-2-furanone]		0.00933				completely inhibited	time-dependent and irreversible		8	86.7	108	7.8	not restored
